Laboratory results: patent publication US9376425B2, “Heterocyclic compounds as MDM2 inhibitors for the treatment of cancer” (AMGEN INC., priority 2011, dated 2016)

Molecular target: T1, human MDM2 (GST-hMDM2 1-188), interaction with biotinylated-p53 (1-83) (Homo sapiens, UniProt Q00987)
T1 construct: Amino acid residues 1-188 of human MDM2 were expressed; made in house; host or cells: Escherichia coli
Assay: improved HTRF assay (HTRF2 assay), inhibition of HDM2-p53 interaction
Format: binding
Conditions: 0.2 nM GST-hMDM2, 0.5 nM biotinylated-p53, 100 mM KF
Method in brief: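 GST-hMDM2 preincubated 20 min at RT with serially diluted compound, then biotinylated p53 (1-83, E. coli) added for 60 min. Detection with SA-XLent, anti-GST cryptate and KF, equilibrated >4 h; final DMSO 2%. TR-FRET read; % inhibition calculated relative to nutlin-3.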

T1 sequence (Q00987 1-188): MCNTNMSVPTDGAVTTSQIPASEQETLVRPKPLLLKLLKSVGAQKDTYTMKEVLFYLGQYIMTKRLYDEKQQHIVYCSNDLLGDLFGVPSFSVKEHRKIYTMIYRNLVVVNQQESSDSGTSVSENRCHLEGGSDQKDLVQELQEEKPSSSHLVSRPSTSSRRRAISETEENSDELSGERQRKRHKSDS

| Compound | IC50 |
| --- | --- |
| C[C@H]1CCCN1S(=O)(=O)C[C@H](C1CC1)N1C(=O)[C@@H](CC(=O)O)O[C@H](c2cccc(Cl)c2)[C@H]1c1ccc(Cl)cc1 (single isomer, unassigned) [Example 297, 2-((2R,5R,6R)-6-(3-Chlorophenyl)-5-(4-chlorophenyl)-4-((S)-1-cyclopropyl-2-(((S)-2-methylpyrrolidin-1-yl)sulfonyl)ethyl)-3-oxomorpholin-2-yl)acetic acid or 2-((2S,5R,6R)-6-(3-chlorophenyl)-5-(4-chlorophenyl)-4-((S)-1-cyclopropyl-2-(((S)-2-methylpyrrolidin-1-yl)sulfonyl)ethyl)-3-oxomorpholin-2-yl)acetic acid] | < 1 nM |
| CC(C)(C)S(=O)(=O)C[C@H](C1CCC1)N1C(=O)[C@@H](CC(=O)O)O[C@H](c2cccc(Cl)c2)[C@H]1c1ccc(Cl)cc1 (single isomer, unassigned) [Example 270, 2-((2R,5R,6R)-4-((S)-2-(tert-Butylsulfonyl)-1-cyclobutylethyl)-6-(3-chlorophenyl)-5-(4-chlorophenyl)-3-oxomorpholin-2-yl)acetic acid or 2-((2S,5R,6R)-4-((S)-2-(tert-butylsulfonyl)-1-cyclobutylethyl)-6-(3-chlorophenyl)-5-(4-chlorophenyl)-3-oxomorpholin-2-yl)acetic acid] | 2 nM |
| CC(C)(C)S(=O)(=O)C[C@H](C1CC1)N1C(=O)[C@@H](CC#N)O[C@H](c2cccc(Cl)c2)[C@H]1c1ccc(Cl)cc1 (single isomer, unassigned) [Example 387, 2-((2R,5R,6R)-4-((S)-2-(tert-Butylsulfonyl)-1-cyclopropylethyl)-6-(3-chlorophenyl)-5-(4-chlorophenyl)-3-oxomorpholin-2-yl)acetonitrile or 2-((2S,5R,6R)-4-((S)-2-(tert-butylsulfonyl)-1-cyclopropylethyl)-6-(3-chlorophenyl)-5-(4-chlorophenyl)-3-oxomorpholin-2-yl)acetonitrile] | 62 nM |
| CC(C)[C@@H](CS(=O)(=O)C(C)(C)C)N1C(=O)[C@@H](CC(=O)O)O[C@H](c2cccc(Cl)c2)[C@H]1c1ccc(Cl)c(F)c1 (single isomer, unassigned) [Example 310] | 1 nM |
| C[C@@H](CS(=O)(=O)C(C)(C)C)N1C(=O)[C@@H](CC(N)=O)O[C@H](c2cccc(Cl)c2)[C@H]1c1ccc(Cl)cc1 (single isomer, unassigned) [Example 225, 2-((2R,5R,6R)-4-((S)-1-(tert-butylsulfonyl)propan-2-yl)-6-(3-chlorophenyl)-5-(4-chlorophenyl)-3-oxomorpholin-2-yl)acetamide or 2-((2S,5R,6R)-4-((S)-1-(tert-butylsulfonyl)propan-2-yl)-6-(3-chlorophenyl)-5-(4-chlorophenyl)-3-oxomorpholin-2-yl)acetamide] | 6 nM |
| CC[C@@H](CS(=O)(=O)C(C)(C)C)N1C(=O)[C@@H](CC(=O)O)O[C@H](c2cccc(Cl)c2)[C@H]1c1ccc(Cl)s1 (single isomer, unassigned) [Example 218, 2-((2R,5S,6R)-4-((S)-1-(tert-butylsulfonyl)butan-2-yl)-6-(3-chlorophenyl)-5-(5-chlorothiophen-2-yl)-3-oxomorpholin-2-yl)acetic acid or 2-((2S,5S,6R)-4-((S)-1-(tert-butylsulfonyl)butan-2-yl)-6-(3-chlorophenyl)-5-(5-chlorothiophen-2-yl)-3-oxomorpholin-2-yl)acetic acid] | 1 nM |
| C[C@@H](CS(=O)(=O)C(C)(C)C)N1C(=O)[C@@H](CC(=O)O)O[C@H](c2cc(F)cc(Cl)c2)[C@H]1c1ccc(Cl)c(F)c1 (single isomer, unassigned) [Example 424, 2-((2R,5R,6R)-4-((S)-1-(tert-Butylsulfonyl)propan-2-yl)-5-(4-chloro-3-fluorophenyl)-6-(3-chloro-5-fluorophenyl)-3-oxomorpholin-2-yl)acetic acid or 2-((2S,5R,6R)-4-((S)-1-(tert-butylsulfonyl)propan-2-yl)-5-(4-chloro-3-fluorophenyl)-6-(3-chloro-5-fluorophenyl)-3-oxomorpholin-2-yl)acetic acid] | 3 nM |
| O=C(O)C[C@@]1(CC(F)(F)F)O[C@H](c2cccc(Cl)c2)[C@@H](c2ccc(Cl)cc2)N([C@H](CN(c2ccccc2F)S(=O)(=O)C2CC2)C2CC2)C1=O (single isomer, unassigned) [Example 333, 2-((2S,5R,6R)-6-(3-Chlorophenyl)-5-(4-chlorophenyl)-4-((S)-1-cyclopropyl-2-(N-(2-fluorophenyl)cyclopropanesulfonamido)ethyl)-3-oxo-2-(2,2,2-trifluoroethyl)morpholin-2-yl)acetic acid or 2-((2R,5R,6R)-6-(3-chlorophenyl)-5-(4-chlorophenyl)-4-((S)-1-cyclopropyl-2-(N-(2-fluorophenyl)cyclopropanesulfonamido)ethyl)-3-oxo-2-(2,2,2-trifluoroethyl)morpholin-2-yl)acetic acid] | 199 nM |
| O=C(C[C@H]1O[C@H](c2cccc(Cl)c2)[C@@H](c2ccc(Cl)cc2)N([C@H](CN(c2ccccc2F)S(=O)(=O)C2CC2)C2CC2)C1=O)Nc1ccccn1 (single isomer, unassigned) [Example 369, 2-((2R,5R,6R)-6-(3-Chlorophenyl)-5-(4-chlorophenyl)-4-((S)-1-cyclopropyl-2-(N-(2-fluorophenyl)cyclopropanesulfonamido)ethyl)-3-oxomorpholin-2-yl)-N-(pyridin-2-yl)acetamide or 2-((2S,5R,6R)-6-(3-chlorophenyl)-5-(4-chlorophenyl)-4-((S)-1-cyclopropyl-2-(N-(2-fluorophenyl)cyclopropanesulfonamido)ethyl)-3-oxomorpholin-2-yl)-N-(pyridin-2-yl)acetamide] | 8 nM |
| 2-((2R,5R,6R)-6-(3-chlorophenyl)-5-(4-chlorophenyl)-4-((S)-1-(N-(2-fluorophenyl)cyclopropanesulfonamido)-3-methylbutan-2-yl)-3-oxomorpholin-2-yl)acetic acid or 2-((2S,5R,6R)-6-(3-chlorophenyl)-5-(4-chlorophenyl)-4-((S)-1-(N-(2-fluorophenyl)cyclopropane sulfonamido)-3-methylbutan-2-yl)-3-oxomorpholin-2-yl)acetic acid [Example 196] | 1 nM |
| CC(C)(C)S(=O)(=O)C[C@H](C1CC1)N1C(=O)[C@@H](Cc2cnn[nH]2)O[C@H](c2cccc(Cl)c2)[C@H]1c1ccc(Cl)cc1 (single isomer, unassigned) [Example 385, (2R,5R,6R)-2-((1H-1,2,3-Triazol-5-yl)methyl)-4-((S)-2-(tert-butylsulfonyl)-1-cyclopropylethyl)-6-(3-chlorophenyl)-5-(4-chlorophenyl)morpholin-3-one or (2S,5R,6R)-2-((1H-1,2,3-triazol-5-yl)methyl)-4-((S)-2-(tert-butylsulfonyl)-1-cyclopropylethyl)-6-(3-chlorophenyl)-5-(4-chlorophenyl)morpholin-3-one] | 4 nM |
